Measurements taken from the supplement of paper PMC10307832.

Columns and labels:
Assay in all cases: relative viability (nuclei count vs DMSO), 5 days (fraction); higher = more cells survive
Vandetanib + Alpelisib = compound: COc1cc2/c(=N/c3ccc(Br)cc3F)nc[nH]c2cc1OCC1CCN(C)CC1 [Vandetanib] + Cc1nc(NC(=O)N2CCC[C@H]2C(N)=O)sc1-c1ccnc(C(C)(C)C(F)(F)F)c1 [Alpelisib] (partner 2 µM)
How it was run: (§1)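 Nuclei were stained with Hoechst during a one-step fixation (final 0.05% Triton X-100, 1% formaldehyde, 1 ug/ml Hoechst) carried out 5 days after dosing, then counted on 4× images. The cells, lung cancer lines in 1536-well plates, had been dosed by pin tool the day after seeding with one drug alone or a fixed anchor-drug dose plus five library-drug doses (not always all listed) in √10 steps. Relative viability is the nuclei count in treated wells divided by that in vehicle wells, and each value is the median of duplicate plates.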

Vandetanib + Phenformin = compound: COc1cc2/c(=N/c3ccc(Br)cc3F)nc[nH]c2cc1OCC1CCN(C)CC1 [Vandetanib] + N=C(N)NC(=N)NCCc1ccccc1 [Phenformin] (partner 250 µM)
How it was run: as §1

[1] = compound: C1=CC=C2C(=C1)N=C(S2)C(C#N)C3=NC(=NC=C3)NCCC4=CN=CC=C4 + C[C@]1(O)C[C@@H](c2nc(-c3ccc4ccc(-c5ccccc5)nc4c3)c3c(N)nccn32)C1 [Linsitinib] (partner 1 µM)
How it was run: as §1

CUDC-101 + AZD7762 = compound: C#Cc1cccc(Nc2ncnc3cc(OC)c(OCCCCCCC(=O)NO)cc23)c1 [CUDC-101] + NC(=O)Nc1cc(-c2cccc(F)c2)sc1C(=O)N[C@H]1CCCNC1 [AZD7762] (partner 0.2 µM)
How it was run: as §1

Cell Line	relative viability (Vandetanib + Alpelisib; first compound 0.02 µM)	relative viability (Vandetanib + Alpelisib; first compound 0.06325 µM)	relative viability (Vandetanib + Alpelisib; first compound 0.2 µM)	relative viability (Vandetanib + Alpelisib; first compound 0.6325 µM)	relative viability (Vandetanib + Alpelisib; first compound 2 µM)	relative viability (Vandetanib + Phenformin; first compound 0.02 µM)	relative viability (Vandetanib + Phenformin; first compound 0.06325 µM)	relative viability (Vandetanib + Phenformin; first compound 0.2 µM)	relative viability (Vandetanib + Phenformin; first compound 0.6325 µM)	relative viability (Vandetanib + Phenformin; first compound 2 µM)	relative viability ([1]; first compound 0.005 µM)	relative viability ([1]; first compound 0.01581 µM)	relative viability ([1]; first compound 0.05 µM)	relative viability ([1]; first compound 0.1581 µM)	relative viability ([1]; first compound 0.5 µM)	relative viability (CUDC-101 + AZD7762; first compound 0.01 µM)	relative viability (CUDC-101 + AZD7762; first compound 0.03162 µM)	relative viability (CUDC-101 + AZD7762; first compound 0.1 µM)	relative viability (CUDC-101 + AZD7762; first compound 0.3162 µM)	relative viability (CUDC-101 + AZD7762; first compound 1 µM)
NCI-H2023	0.568	0.49	0.732	0.524	0.486	0.399	0.402	0.354	0.323	0.328	0.743	0.695	0.68	0.671	0.701	–	–	–	–	–
SK-LU-1	1.06	0.594	1.02	0.926	0.758	0.518	0.405	0.464	0.491	0.558	–	1.08	1.01	1.47	1.07	–	–	–	–	–
LCLC-97TM1	0.223	0.243	0.204	0.22	0.209	0.457	0.42	0.441	0.393	0.422	0.218	0.186	0.175	0.191	0.225	0.264	0.211	0.343	0.305	0.248
NCI-H1915	0.964	1.05	1.04	1.08	1.05	0.366	0.353	0.387	0.372	0.365	1.08	1.09	1.09	1.18	1.13	0.717	0.631	0.61	0.548	0.516
NCI-H358	0.741	0.733	0.175	0.533	0.385	0.295	0.275	0.265	0.217	0.26	0.533	0.739	0.654	0.722	0.654	0.565	0.493	0.518	0.261	0.237
LK-2	0.951	1.04	1.11	1.16	1.11	0.381	0.5	0.419	0.444	0.408	0.409	0.736	0.621	0.689	0.555	0.508	0.422	0.336	0.263	0.0851
NCI-H2228	0.75	0.587	–	0.712	0.624	0.263	0.281	0.384	0.294	0.303	0.792	0.762	0.629	0.734	0.634	–	–	–	–	–
NCI-H1563	0.852	0.958	0.88	0.904	0.916	0.679	0.629	0.695	0.616	0.625	1.27	1.32	1.16	1.2	1.18	–	–	–	–	–
NCI-H661	0.602	0.565	0.604	0.441	0.582	0.265	0.284	0.269	0.279	0.271	0.509	0.667	0.545	0.516	0.592	–	–	–	–	–
NCI-H1650	–	–	–	–	–	0.409	0.332	0.251	0.329	0.321	–	–	–	–	–	–	–	–	–	–
NCI-H2170	0.782	0.799	0.746	0.805	0.781	0.342	0.402	0.415	0.409	0.357	–	–	–	–	–	1.07	0.839	0.819	0.892	0.723
NCI-H2009	1.16	1.07	1.2	1.15	1.15	0.495	0.462	0.416	0.443	0.361	1.15	1.22	1.22	1.25	1.07	–	–	–	–	–
NCI-H1623	–	–	–	–	–	0.574	0.525	0.574	0.526	0.622	–	–	–	–	–	–	–	–	–	–
NCI-H2342	–	–	–	–	–	0.596	0.496	0.592	0.576	0.477	–	–	–	–	–	0.507	0.459	0.51	0.407	0.353
COR-L23	0.701	0.528	0.114	0.773	0.902	0.485	0.442	0.428	0.452	0.464	0.483	1.14	1.01	1.06	0.682	–	–	–	–	–
EBC-1	0.81	0.784	0.862	0.809	0.746	–	–	–	–	–	1.04	0.871	0.502	1.01	0.812	–	–	–	–	–
ChaGo-K-1	–	–	–	–	–	0.411	0.463	0.297	0.452	0.466	–	–	–	–	–	0.92	0.913	0.937	0.841	0.732
NCI-H1299	0.956	0.997	1.07	1.09	1.04	–	–	–	–	–	0.92	0.99	0.744	1.07	0.912	–	–	–	–	–
Calu-6	0.99	1.01	0.881	0.895	0.843	–	–	–	–	–	0.884	0.982	0.89	1.07	0.914	–	–	–	–	–
NCI-H1703	0.306	–	0.347	0.284	0.222	–	–	–	–	–	0.547	0.711	–	0.718	0.676	0.141	0.117	0.11	0.116	0.125
SK-MES-1	0.913	0.929	0.86	0.851	0.646	0.657	0.608	0.62	0.581	0.471	1.17	1.07	1.09	1.12	0.97	–	–	–	–	–
SW 1573	0.75	0.726	0.753	0.969	0.743	0.357	0.382	0.397	0.347	0.351	0.725	0.776	0.792	0.895	0.745	–	–	–	–	–
NCI-H1648	–	–	–	–	–	–	–	–	–	–	–	–	–	–	–	0.846	0.566	0.646	0.45	0.361
